Assay results taken from patent publication US8557833B2, “Aminopyrimidines useful as kinase inhibitors” (priority 2005, dated 2013).
Like-named read-outs stand apart in the source and are kept apart here.

Assays:
[1] = Microsomal stability assay; assay type: in vitro ADME; settings: 5 μM compound, 1 mg/mL liver microsome protein, 37° C., species not given
Procedure: Microsomal stability was monitored by generation of depletion-time profiles in microsomes from a range of species (male CD-1 mouse, male Sprague-Dawley rat, male Beagle dog, male Cynomolgus monkey and pooled mixed gender human). Compound spiking solutions were made up by diluting down the compound stock solution in DMSO (typically 10 mM) to give a solution in acetonitrile (0.5 mM). […].
The reaction was initiated by the addition (250 μL) of the pre-incubated RGS to the pre-incubated microsome/VRT/PB mixture (pre-incubation in both instances was for 10 minutes at 37° C.). Samples were incubated within Eppendorf vials (1.5 ml) on a heater shaker (DPC Micromix 5 (settings; form 20, amplitude 4) modified to be heated, to 37° C., by two plate heaters fixed to the deck and controlled by a Packard Manual Heater) attached to a Multiprobe II HT Ex automated liquid handler. The liquid handler was programmed (WinPREP software) to sample the microsomal incubation mixture after 0, 2, 10, 30 and 60 minutes of incubation and transfer an aliquot (100 μL) to a stop block (96-well block) containing 100 μL of chilled methanol. The % organic in the stop mixture was optimized for analysis by addition of appropriate volumes of aqueous/organic (typically 100 μl of 50:50 methanol:water).
Prior to analysis the stop block was placed on a shaker (DPC Micromix 5; 10 min, form 20, amplitude 5) to precipitate out proteins. The block was then centrifuged (Jouan GR412; 2000 rpm, 15 min, 4° C.). A sample aliquot (200 μL) was then transferred to an analysis block and the block was centrifuged again (Jouan GR412; 2000 rpm, 5 min, 4° C.) prior to being sent for analysis. Depletion profiles were determined by monitoring the disappearance of VRT by liquid chromatography-tandem mass spectrometry (LC-MS/MS). Samples were injected (20 μL; Agilent 1100 liquid chromatographic system equipped with autosampler) onto an analytical column. Mobile phase consisted of Water+0.05% (v/v) formic acid (A) and methanol+0.05% (v/v) formic acid (B).
Running a gradient method optimized for the compound of interest carried out the compound elution from analytical column. The total run time was 6 minutes with a flow rate of 0.35 mL/min. The entire column effluent entered the electrospray ionization source (positive mode) of a Micromass Quattro LC tandem mass spectrometer between 0.5 and 5.9 min of the run. The mass spectrometry was optimized for the compound of interest. All incubations were conducted in duplicate and results were expressed as % parent remaining at either 30 minutes or 60 minutes relative to 0 minutes sample.

[2] = molecular target: N-terminally truncated Abl kinase; test: Abl kinase activity inhibition assay, coupled enzyme; assay type: biochemical; settings: read-out: Abl (wild) Ki; 110 μM ATP, 30° C., 21 nM Abl kinase
Chain of N-terminally truncated Abl kinase (P00519 28-1130): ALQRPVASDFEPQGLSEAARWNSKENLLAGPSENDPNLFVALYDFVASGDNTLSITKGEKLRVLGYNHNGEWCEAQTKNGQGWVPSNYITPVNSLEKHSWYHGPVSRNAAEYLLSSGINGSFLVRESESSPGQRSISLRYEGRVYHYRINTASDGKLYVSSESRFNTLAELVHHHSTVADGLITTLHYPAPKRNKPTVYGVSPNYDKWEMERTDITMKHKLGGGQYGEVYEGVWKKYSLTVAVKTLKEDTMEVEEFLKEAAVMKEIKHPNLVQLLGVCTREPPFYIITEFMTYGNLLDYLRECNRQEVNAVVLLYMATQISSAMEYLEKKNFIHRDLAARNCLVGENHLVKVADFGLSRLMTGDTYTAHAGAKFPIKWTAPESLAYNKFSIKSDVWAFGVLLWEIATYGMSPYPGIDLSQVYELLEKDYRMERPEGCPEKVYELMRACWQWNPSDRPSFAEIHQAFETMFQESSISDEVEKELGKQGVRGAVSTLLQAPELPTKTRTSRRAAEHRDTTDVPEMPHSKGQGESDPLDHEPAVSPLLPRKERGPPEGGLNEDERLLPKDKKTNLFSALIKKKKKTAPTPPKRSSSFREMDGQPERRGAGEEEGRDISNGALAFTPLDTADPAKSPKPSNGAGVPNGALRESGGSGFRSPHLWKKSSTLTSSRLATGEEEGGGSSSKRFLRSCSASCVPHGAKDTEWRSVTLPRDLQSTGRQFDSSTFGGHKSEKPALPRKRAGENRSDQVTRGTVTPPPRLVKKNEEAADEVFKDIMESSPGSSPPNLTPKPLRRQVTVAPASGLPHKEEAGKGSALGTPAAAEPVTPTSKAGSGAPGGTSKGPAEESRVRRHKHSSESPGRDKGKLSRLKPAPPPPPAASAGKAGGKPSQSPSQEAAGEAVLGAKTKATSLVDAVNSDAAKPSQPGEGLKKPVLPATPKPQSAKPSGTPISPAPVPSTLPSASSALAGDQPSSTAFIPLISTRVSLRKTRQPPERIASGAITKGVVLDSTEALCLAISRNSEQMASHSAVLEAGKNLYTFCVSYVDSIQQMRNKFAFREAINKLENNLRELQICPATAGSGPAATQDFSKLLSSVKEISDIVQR
Procedure: Final concentrations of the components of the coupled enzyme system were 2.5 mM phosphoenolpyruvate, 200 μM NADH, […] pyruvate kinase and 20 μg/ml lactate dehydrogenase.
An assay stock buffer solution was prepared containing all of the reagents listed above with the exception of ATP and the test compound of interest. […] Rates of reaction were obtained using a Molecular Devices Spectramax plate reader (Sunnyvale, Calif.) over 10 min at 30° C. The Ki values were determined from the residual rate data as a function of inhibitor concentration using nonlinear regression (Prism 3.0, Graphpad Software, San Diego, Calif.).

FLT-3 = molecular target: T1, FLT-3 (Homo sapiens, UniProt P36888); test: FLT-3 inhibition assay, radiometric filter-binding; assay type: biochemical
T1 sequence (P36888 27-993): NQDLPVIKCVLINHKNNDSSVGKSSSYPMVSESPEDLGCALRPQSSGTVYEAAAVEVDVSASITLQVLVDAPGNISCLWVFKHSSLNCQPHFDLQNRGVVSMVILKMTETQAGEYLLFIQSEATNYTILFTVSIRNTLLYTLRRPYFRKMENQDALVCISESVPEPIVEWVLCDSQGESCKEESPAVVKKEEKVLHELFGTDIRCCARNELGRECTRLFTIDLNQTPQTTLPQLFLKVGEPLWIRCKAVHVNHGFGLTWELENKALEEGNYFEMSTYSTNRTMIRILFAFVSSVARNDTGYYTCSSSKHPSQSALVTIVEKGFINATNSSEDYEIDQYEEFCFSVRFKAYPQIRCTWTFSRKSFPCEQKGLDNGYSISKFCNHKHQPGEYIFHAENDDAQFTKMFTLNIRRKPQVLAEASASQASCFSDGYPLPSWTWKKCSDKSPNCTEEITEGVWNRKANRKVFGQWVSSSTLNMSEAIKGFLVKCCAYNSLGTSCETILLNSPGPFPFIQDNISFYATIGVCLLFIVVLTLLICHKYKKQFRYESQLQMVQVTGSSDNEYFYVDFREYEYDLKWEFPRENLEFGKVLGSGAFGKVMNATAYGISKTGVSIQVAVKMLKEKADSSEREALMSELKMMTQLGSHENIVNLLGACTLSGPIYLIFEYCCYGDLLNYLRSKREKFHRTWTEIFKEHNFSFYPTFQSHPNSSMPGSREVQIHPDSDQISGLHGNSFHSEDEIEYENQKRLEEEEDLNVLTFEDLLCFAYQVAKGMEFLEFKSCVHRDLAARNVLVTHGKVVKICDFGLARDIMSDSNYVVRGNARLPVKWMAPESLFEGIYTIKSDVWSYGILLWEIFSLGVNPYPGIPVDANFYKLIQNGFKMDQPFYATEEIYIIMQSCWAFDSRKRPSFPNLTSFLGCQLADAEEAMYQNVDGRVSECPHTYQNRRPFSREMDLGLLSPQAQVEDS
Procedure: This assay monitors the 33P incorporation into a substrate poly(Glu, Tyr) 4:1 (pE4Y). […] Final substrate concentrations in the assay were 90 μM ATP and 0.5 mg/ml pE4Y (both from Sigma Chemicals, St Louis, Mo.). […] Reactions were carried out at room temperature.
Two assay solutions were prepared. Solution 1 contains 100 mM HEPES (pH 7.5), 10 mM MgCl2, 25 mM NaCl, 1 mg/ml pE4Y and […] (containing 0.3 mCi of [γ-33^P]ATP for each reaction). Solution 2 contains 100 mM HEPES (pH 7.5), 10 mM MgCl2, 25 mM NaCl, 2 mM DTT, 0.02% BSA and 3 nM FLT-3. The assay was run on a 96 well plate by mixing 50 μl each of Solution 1 and […] of the compounds of the present invention. The reaction was initiated with Solution 2. […] All of the reaction volume was then transferred to a filter plate and washed with 5% TCA by a Harvester 9600 from TOMTEC (Hamden, Conn.). The amount of ^33P incorporation into pE4y was analyzed by a Packard Top Count Microplate Scintillation Counter (Meriden, Conn.). The data was fitted using Prism software to get an IC50 or Ki.

Aurora-1 (Aurora B) = Aurora-1 (Aurora B) (Homo sapiens, UniProt Q96GD4); test: Aurora-1 (Aurora B) inhibition assay (radiometric); assay type: biochemical
Chain of Aurora-1 (Aurora B) (Q96GD4 whole entry): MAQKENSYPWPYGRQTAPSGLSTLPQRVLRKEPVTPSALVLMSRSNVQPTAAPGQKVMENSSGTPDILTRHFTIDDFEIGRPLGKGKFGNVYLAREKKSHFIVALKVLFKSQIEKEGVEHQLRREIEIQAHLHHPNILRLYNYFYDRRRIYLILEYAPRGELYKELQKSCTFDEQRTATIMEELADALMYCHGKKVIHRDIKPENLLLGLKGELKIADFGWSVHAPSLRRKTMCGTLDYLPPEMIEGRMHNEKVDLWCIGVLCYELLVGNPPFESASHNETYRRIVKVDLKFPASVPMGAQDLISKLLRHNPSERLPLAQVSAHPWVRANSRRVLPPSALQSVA
Procedure: An assay buffer solution was prepared which consisted of 25 mM HEPES (pH 7.5), 10 mM MgCl2, 0.1% BSA and 10% glycerol. […] To 22 μL of the Aurora-B solution, in a 96-well plate, was added 2 μl of a compound stock solution in DMSO and the mixture allowed to equilibrate for 10 minutes at 25° C. The enzyme reaction was initiated by the addition of 16 μl stock [γ-^33P]-ATP solution (˜20 nCi/μL) prepared in assay buffer, to a final assay concentration of 800 μM. The reaction was stopped after 3 hours by the addition of 16 μL 500 mM phosphoric acid and the levels of ^33P incorporation into the peptide substrate were determined by the following method.
A phosphocellulose 96-well plate (Millipore, Cat no. MAPHNOB50) was pre-treated with 100 μL of a 100 mM phosphoric acid prior to the addition of the enzyme reaction mixture (40 μL). The solution was left to soak on to the phosphocellulose membrane for 30 minutes and the plate subsequently washed four times with 200 μL of a 100 mM phosphoric acid. […] Levels of non-enzyme catalyzed background radioactivity were determined by adding 16 μL of the 500 mM phosphoric acid to control wells, containing all assay components (which acts to denature the enzyme), prior to the addition of the [γ-^33P]-ATP solution. Levels of enzyme catalyzed ^33P incorporation were calculated by subtracting mean background counts from those measured at each inhibitor concentration. […] Ki values were calculated from initial rate data by non-linear regression using the Prism software package (Prism 3.0, Graphpad Software, San Diego, Calif.).

JAK-2 = JAK-2 (Homo sapiens, UniProt O60674); test: JAK2 inhibition assay; assay type: biochemical; settings: 12 μM ATP, 15 μM poly(Glu)4Tyr
Chain of JAK-2 (O60674 whole entry, species assumed): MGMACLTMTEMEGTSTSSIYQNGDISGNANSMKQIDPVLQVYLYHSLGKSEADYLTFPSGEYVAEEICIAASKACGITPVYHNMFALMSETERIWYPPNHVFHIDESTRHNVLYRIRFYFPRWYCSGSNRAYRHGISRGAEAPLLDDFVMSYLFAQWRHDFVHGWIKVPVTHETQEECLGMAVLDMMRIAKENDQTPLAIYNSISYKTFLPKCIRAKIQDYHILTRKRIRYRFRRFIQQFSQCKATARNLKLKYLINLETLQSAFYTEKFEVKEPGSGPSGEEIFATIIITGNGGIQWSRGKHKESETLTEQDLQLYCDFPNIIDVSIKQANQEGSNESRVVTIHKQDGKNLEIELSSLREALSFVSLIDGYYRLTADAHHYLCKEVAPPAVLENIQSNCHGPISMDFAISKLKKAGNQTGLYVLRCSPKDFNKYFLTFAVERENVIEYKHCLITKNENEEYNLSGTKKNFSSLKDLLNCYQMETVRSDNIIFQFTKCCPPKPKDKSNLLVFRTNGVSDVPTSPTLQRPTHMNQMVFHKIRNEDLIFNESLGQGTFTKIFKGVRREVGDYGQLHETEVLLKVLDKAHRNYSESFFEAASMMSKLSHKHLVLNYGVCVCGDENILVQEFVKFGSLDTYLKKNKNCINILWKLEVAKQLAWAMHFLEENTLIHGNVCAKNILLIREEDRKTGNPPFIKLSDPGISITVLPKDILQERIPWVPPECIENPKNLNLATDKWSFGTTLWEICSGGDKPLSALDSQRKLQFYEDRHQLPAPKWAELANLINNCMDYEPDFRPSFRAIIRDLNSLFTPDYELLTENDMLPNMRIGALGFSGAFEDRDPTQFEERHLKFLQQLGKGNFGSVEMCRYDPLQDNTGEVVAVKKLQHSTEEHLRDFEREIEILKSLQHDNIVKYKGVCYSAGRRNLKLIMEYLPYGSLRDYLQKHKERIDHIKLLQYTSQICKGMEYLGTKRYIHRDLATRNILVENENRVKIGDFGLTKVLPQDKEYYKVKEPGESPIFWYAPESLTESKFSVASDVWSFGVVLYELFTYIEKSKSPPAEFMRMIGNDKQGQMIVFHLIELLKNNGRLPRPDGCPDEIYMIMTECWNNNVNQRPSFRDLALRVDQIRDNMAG

Aurora-2 (Aurora A) = molecular target: T2, Aurora-2 (Aurora A) (Homo sapiens, UniProt O14965); test: Aurora-2 (Aurora A) inhibition assay, coupled enzyme; assay type: biochemical
T2 sequence (O14965 1-403): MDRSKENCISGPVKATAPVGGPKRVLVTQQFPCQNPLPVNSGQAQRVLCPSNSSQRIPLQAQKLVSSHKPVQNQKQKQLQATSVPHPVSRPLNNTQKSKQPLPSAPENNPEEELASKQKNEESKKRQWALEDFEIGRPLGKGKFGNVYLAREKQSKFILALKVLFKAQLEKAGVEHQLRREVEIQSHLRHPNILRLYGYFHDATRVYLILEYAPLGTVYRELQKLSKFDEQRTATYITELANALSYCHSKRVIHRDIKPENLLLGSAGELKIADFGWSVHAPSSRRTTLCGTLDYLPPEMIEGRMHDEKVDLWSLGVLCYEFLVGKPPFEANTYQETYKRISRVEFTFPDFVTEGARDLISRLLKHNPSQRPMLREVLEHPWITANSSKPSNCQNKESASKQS
Procedure: Assays were carried out in a mixture of 100 mM Hepes (pH7.5), 10 mM MgCl2, 1 mM DTT, 25 mM NaCl, 2.5 mM phosphoenolpyruvate, 300 μM NADH, 30 μg/ml pyruvate kinase and 10 μg/ml lactate dehydrogenase. […] Assays were carried out at 30° C. and in the presence of 40 nM Aurora-2.
An assay stock buffer solution was prepared containing all of the reagents listed above, with the exception of Aurora-2 and the test compound of interest. […] The plate was preincubated for 10 minutes at 30° C. and the reaction initiated by addition of 10 μl of Aurora-2. Initial reaction rates were determined with a Molecular Devices SpectraMax Plus plate reader over a 10 minute time course. IC50 and Ki data were calculated from non-linear regression analysis using the Prism software package (GraphPad Prism version 3.0cx for Macintosh, GraphPad Software, San Diego Calif., USA).

[3] = 800 μM ATP, Kemptide, 25° C., read-out: Aurora B Ki
[4] = 400 μM ATP, 570 μM Kemptide, 30° C., 40 nM Aurora-2, read-out: Aurora A Ki

| Compound | Microsomal Stability (% remaining after 30 min.) [1] | Microsomal Stability (% remaining after 60 min.) [1] | Ki [2] | Ki (FLT-3; 90 μM ATP, 0.5 mg/ml pE4Y, room temperature, read-out: FLT-3 Ki) | Ki (Aurora-1 (Aurora B); [3]) | Ki (JAK-2) | Ki (Aurora-2 (Aurora A)) | Ki (Aurora-1 (Aurora B)) | Ki (Aurora-2 (Aurora A); [4]) | Ki (FLT-3) |
| --- | --- | --- | --- | --- | --- | --- | --- | --- | --- | --- |
| Cc1cc(Nc2cc(N3CCC3)nc(Sc3ccc(NC(=O)c4cccc(F)c4F)cc3)n2)[nH]n1 [Compound I-7] | 102% | 69% | 35 nM | 250 nM | 5.1 nM | 41 nM | – | – | – | – |
| Cc1cc(Nc2cc(N3CCC3)nc(Sc3ccc(NC(=O)c4cccc(Cl)c4Cl)cc3)n2)n[nH]1 [Compound I-9] | – | 69% | – | – | – | – | 0.85 nM | 6.5 nM | – | – |
| Cc1cc(Nc2cc(N3CCC3)nc(Sc3ccc(NC(=O)c4cc(F)ccc4F)cc3)n2)[nH]n1 [Compound I-10] | – | – | – | – | < 25 nM | – | – | – | 1.8 nM | – |
| CCc1cc(Nc2cc(N3CCC3)nc(Sc3ccc(NC(=O)c4ccccc4Cl)cc3)n2)n[nH]1 [Compound I-16] | 91% | 63% | – | – | – | 440 nM | 0.56 nM | 7.5 nM | – | – |

More lines, now with the values ahead:

| Microsomal Stability (% remaining after 30 min.) [1] | Microsomal Stability (% remaining after 60 min.) [1] | Ki [2] | Ki (FLT-3; 90 μM ATP, 0.5 mg/ml pE4Y, room temperature, read-out: FLT-3 Ki) | Ki (Aurora-1 (Aurora B); [3]) | Ki (JAK-2) | Ki (Aurora-2 (Aurora A)) | Ki (Aurora-1 (Aurora B)) | Ki (Aurora-2 (Aurora A); [4]) | Ki (FLT-3) | Compound |
| --- | --- | --- | --- | --- | --- | --- | --- | --- | --- | --- |
| 89% | 58% | – | – | 8 nM | 63 nM | – | – | 0.6 nM | – | COc1cccc(C(=O)Nc2ccc(Sc3nc(Nc4cc(C)n[nH]4)cc(N4CCC4)n3)cc2)c1 [Compound I-18] |
| – | – | – | – | 6 nM | – | 1.4 nM | – | – | – | CSc1ccccc1C(=O)Nc1ccc(Sc2nc(Nc3cc(C)[nH]n3)cc(N3CCC3)n2)cc1 [Compound I-23] |
| – | – | – | – | 18 nM | 660 nM | – | – | 1 nM | 700 nM | Cc1cc(Nc2cc(N3CCC3)nc(Sc3ccc(NC(=O)c4ccccc4Cl)nc3)n2)[nH]n1 [Compound I-24] |
